Measured values: ChEMBL document CHEMBL1201862, “PubChem BioAssay data set” (2004)
Several values for one entry are separate records, joined by “and”; a condition that tells them apart may be missing. Equal values may be shown once.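 All cell lines were grown in 96-well plates and treated with compound for 48 hours. GI50 = concentration required for 50% inhibition of growth.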 Activity calls are given as the source filed them. No stated cut-off is given here; in the data, active = GI50 up to about 1.1 µM and inactive = higher.

How the values were obtained:
Test in all cases: growth of human tumour cells (NCI), 48 h
[1] = system: SN12C
[2] = system: SNB-78
[3] = system: KM12
[4] = system: M14
[5] = system: CCRF-CEM
[6] = system: A549
[7] = system: EKVX
[8] = system: TK-10
[9] = system: LXFL 529
[10] = system: HCT-116
[11] = system: SK-MEL-2
[12] = system: SW-620
[13] = system: SF-268
[14] = system: SNB-19
[15] = system: OVCAR-8
[16] = system: RPMI-8226
[17] = system: OVCAR-3
[18] = system: K562
[19] = system: ACHN
[20] = system: HOP-62
[21] = system: RXF 393
[22] = system: LOX IMVI
[23] = system: UACC-257
[24] = system: KM-20L2
[25] = system: UO-31
[26] = system: A498
[27] = system: UACC-62
[28] = system: NCI-H23
[29] = system: OVCAR-4
[30] = system: U-251
[31] = system: OVCAR-5
[32] = system: HT-29
[33] = system: SK-MEL-28
[34] = system: HCT-15
[35] = system: 786-0
[36] = system: MOLT-4
[37] = system: SK-MEL-5
[38] = system: SR
[39] = system: IGROV-1
[40] = system: HL-60
[41] = system: NCI-H522
[42] = system: NCI-H460
[43] = system: SF-295
[44] = system: HOP-92
[45] = system: CAKI-1
[46] = system: Malme-3M
[47] = system: Hs-578T
[48] = system: PC-3
[49] = system: MDA-N
[50] = system: BT-549
[51] = system: COLO 205
[52] = system: DU-145
[53] = system: SNB-75
[54] = system: SF-539
[55] = system: T47D
[56] = system: MDA-MB-231
[57] = system: MCF7
[58] = system: MDA-MB-435
[59] = system: HCC 2998
[60] = system: NCI-H226
[61] = system: SK-OV-3
[62] = system: NCI/ADR-RES
[63] = system: DMS-114
[64] = system: DLD-1
[65] = system: M19-MEL
[66] = system: DMS-273

`COc1cc(OC(C)=O)cc2c(OC(C)=O)ccc(OC(C)=O)c12` was tested, and the GI50 [1] was > 100 µM (inactive), the GI50 [2] was > 100 µM (inactive) and the GI50 [3] was > 100 µM (inactive). For the same compound, the GI50 [4] was > 100 µM (inactive), the GI50 [5] was 74.8 µM (inactive) and the GI50 [6] was > 100 µM (inactive). The GI50 [7] was > 100 µM (inactive), the GI50 [8] was > 100 µM (inactive) and the GI50 [9] was > 100 µM (inactive). For the same compound, the GI50 [10] was > 100 µM (inactive), the GI50 [11] was > 100 µM (inactive) and the GI50 [12] was > 100 µM (inactive). For the same compound, the GI50 [13] was > 100 µM (inactive), the GI50 [14] was > 100 µM (inactive) and the GI50 [15] was > 100 µM (inactive). For the same compound, the GI50 [16] was > 100 µM (inactive), the GI50 [17] was > 100 µM (inactive) and the GI50 [18] was > 100 µM (inactive). For the same compound, the GI50 [19] was > 100 µM (inactive), the GI50 [20] was > 100 µM (inactive) and the GI50 [21] was > 100 µM (inactive). For the same compound, the GI50 [22] was > 100 µM (inactive), the GI50 [23] was > 100 µM (inactive) and the GI50 [24] was > 100 µM (inactive). For the same compound, the GI50 [25] was > 100 µM (inactive), the GI50 [26] was > 100 µM (inactive) and the GI50 [27] was > 100 µM (inactive). The GI50 [28] was > 100 µM (inactive), the GI50 [29] was 73.6 µM (inactive) and the GI50 [30] was > 100 µM (inactive). The GI50 [31] was > 100 µM (inactive), the GI50 [32] was > 100 µM (inactive) and the GI50 [33] was > 100 µM (inactive). For the same compound, the GI50 [34] was greater than 100 µM, the GI50 [35] was > 100 µM (inactive) and the GI50 [36] was > 100 µM (inactive). For the same compound, the GI50 [37] was > 100 µM (inactive), the GI50 [38] was > 100 µM (inactive) and the GI50 [39] was > 100 µM (inactive). The GI50 [40] was 43.6 µM (inactive), the GI50 [41] was > 100 µM (inactive) and the GI50 [42] was > 100 µM (inactive). For the same compound, the GI50 [43] was > 100 µM (inactive), the GI50 [44] was 17.1 µM (inactive) and the GI50 [45] was > 100 µM (inactive).
`C/C=C(\C)C(=O)OC1C2C(C)C(=O)OC2C(O)C(C)C2C=CC(=O)C21C` (configuration not stated) was tested, and the GI50 [1] was 14.9 µM (inactive), the GI50 [3] was 11.1 µM (inactive) and the GI50 [4] was 14.9 µM (inactive). For the same compound, the GI50 [46] was 12.6 µM (inactive), the GI50 [5] was 3.06 µM (inactive) and the GI50 [6] was 17.8 µM (inactive). For the same compound, the GI50 [7] was 11.7 µM (inactive), the GI50 [8] was 12.5 µM (inactive) and the GI50 [10] was 9.59 µM (inactive). The GI50 [47] was 13.3 µM (inactive), the GI50 [11] was 17.8 µM (inactive) and the GI50 [48] was 16.8 µM (inactive). For the same compound, the GI50 [49] was 8.81 µM (inactive), the GI50 [12] was 14 µM (inactive) and the GI50 [50] was 7.5 µM (inactive). The GI50 [13] was 18.6 µM (inactive), the GI50 [14] was 13.2 µM (inactive) and the GI50 [15] was 11.9 µM (inactive). For the same compound, the GI50 [16] was 4.61 µM (inactive), the GI50 [51] was 12.7 µM (inactive) and the GI50 [52] was 10.9 µM (inactive). The GI50 [53] was 15.8 µM (inactive), the GI50 [17] was 10.8 µM (inactive) and the GI50 [18] was 2.96 µM (inactive). The GI50 [19] was 12.3 µM (inactive), the GI50 [20] was 18.2 µM (inactive) and the GI50 [54] was 9.27 µM (inactive). The GI50 [21] was 8.73 µM (inactive), the GI50 [22] was 13.2 µM (inactive) and the GI50 [23] was 12.7 µM (inactive). For the same compound, the GI50 [25] was 14.8 µM (inactive), the GI50 [55] was 16.7 µM (inactive) and the GI50 [26] was 16.1 µM (inactive). The GI50 [27] was 10.5 µM (inactive), the GI50 [28] was 10.4 µM (inactive) and the GI50 [29] was 16.9 µM (inactive). For the same compound, the GI50 [30] was 11.5 µM (inactive), the GI50 [31] was 19.5 µM (inactive) and the GI50 [56] was 3.69 µM (inactive). The GI50 [32] was 15.2 µM (inactive), the GI50 [33] was 14.1 µM (inactive) and the GI50 [57] was 7.85 µM (inactive). For the same compound, the GI50 [34] was 10.6 µM, the GI50 [35] was 12.1 µM (inactive) and the GI50 [36] was 8.47 µM (inactive). For the same compound, the GI50 [58] was 12.9 µM (inactive), the GI50 [37] was 7.46 µM (inactive) and the GI50 [38] was 2.18 µM (inactive). For the same compound, the GI50 [39] was 8.69 µM (inactive), the GI50 [40] was 3.24 µM (inactive) and the GI50 [59] was 13.3 µM (inactive). For the same compound, the GI50 [41] was 2.69 µM (inactive), the GI50 [42] was 4.49 µM (inactive) and the GI50 [60] was 16.9 µM (inactive). For the same compound, the GI50 [43] was 14.7 µM (inactive), the GI50 [44] was 13.4 µM (inactive) and the GI50 [61] was 16.6 µM (inactive). For the same compound, the GI50 [62] was 14.6 µM (inactive) and the GI50 [45] was 13 µM (inactive).
In the case of `CC#COS(=O)(=O)c1ccc(C)cc1`, the GI50 [1] is reported as > 100 µM (inactive), the GI50 [2] is reported as 63.5 µM (inactive) and the GI50 [3] is reported as 59.2 µM (inactive). The GI50 [63] was 32.7 µM (inactive), the GI50 [4] was 35.6 µM (inactive) and the GI50 [46] was 88.3 µM (inactive). For the same compound, the GI50 [5] was 27.9 µM (inactive), the GI50 [6] was 44.3 µM (inactive) and the GI50 [7] was 53.5 µM (inactive). The GI50 [8] was > 100 µM (inactive), the GI50 [9] was 41 µM (inactive) and the GI50 [10] was 37.5 µM (inactive). For the same compound, the GI50 [11] was > 100 µM (inactive), the GI50 [12] was 42.7 µM (inactive) and the GI50 [13] was 93.3 µM (inactive). The GI50 [14] was > 100 µM (inactive), the GI50 [15] was > 100 µM (inactive) and the GI50 [16] was 23.1 µM (inactive). The GI50 [51] was 39.9 µM (inactive), the GI50 [17] was 60.5 µM (inactive) and the GI50 [18] was 36.8 µM (inactive). The GI50 [19] was 58.2 µM (inactive), the GI50 [64] was 30.8 µM (inactive) and the GI50 [20] was > 100 µM (inactive). The GI50 [54] was > 100 µM (inactive), the GI50 [22] was 52 µM (inactive) and the GI50 [23] was 47.5 µM (inactive). For the same compound, the GI50 [24] was 46.5 µM (inactive), the GI50 [25] was 57.1 µM (inactive) and the GI50 [26] was > 10 µM (inactive). The GI50 [27] was 32.4 µM (inactive), the GI50 [28] was 65.6 µM (inactive) and the GI50 [29] was 58.5 µM (inactive). The GI50 [30] was > 100 µM (inactive), the GI50 [31] was > 100 µM (inactive) and the GI50 [32] was 45.9 µM (inactive). For the same compound, the GI50 [34] was 79.8 µM, the GI50 [35] was 44.4 µM (inactive) and the GI50 [36] was 41.1 µM (inactive). The GI50 [37] was 37.4 µM (inactive), the GI50 [38] was 33.7 µM (inactive) and the GI50 [39] was > 100 µM (inactive). For the same compound, the GI50 [65] was 70.1 µM (inactive), the GI50 [40] was 26.4 µM (inactive) and the GI50 [59] was > 100 µM (inactive). The GI50 [41] was 49.5 µM (inactive), the GI50 [42] was 70.6 µM (inactive) and the GI50 [60] was 89.3 µM (inactive). The GI50 [43] was > 100 µM (inactive), the GI50 [61] was 84.3 µM (inactive) and the GI50 [45] was > 100 µM (inactive).
`O=c1[nH]c(=O)n([C@H]2C[C@H](O)[C@@H](CO)O2)cc1F` [FLOXURIDINE] was tested, and the GI50 [66] was 319 nM (active) and the GI50 [31] was 103 µM (inactive) and > 89.9 µM (inactive).
